Legend:
U251 MG = U251 MG xenograft orthotopic brain model in nude rat, cilengitide with radiation; format: in vivo; conditions: for Tumor volume (mm^3) median (histologic, Alu ISH): median (range)
Description: Synergistic Effect of the Combination of Cilengitide with Radiation in U251 MG Xenograft Orthotopic Brain Model in Nude Rat Caspase 3 Staining (Shown in FIG. 17) [table] RT is radiotherapy. Single dose. EMD is cilengitide. Single dose.

H1299 = experiment: Cellular radiosensitivity by clonogenic cell survival assay, H1299; format: cell-based, human; conditions: combined with γ-radiation, given 1 h before and continued 23 h after irradiation
Description: (§1) Methods: Three non-small cell lung carcinoma lines (NSCLCs) (H460, A549 and H1299) and three head and neck squamous cell carcinoma lines (HNSCCs) (FaDu, SCC-15 and SCC-25) cell lines were used for in vitro experiments. Of these, H460 and FaDu were used for in vivo testing when grown as xenografts in nude mice. The effects of cilengitide (1-50 μg/ml, 24 h) on in vitro cell viability was determined by MTS assay and on cellular radiosensitivity by clonogenic cell survival assay after exposing the cells to graded single doses of γ-radiation with or without cilengitide (given 1 h before and continued for 23 h after irradiation). In vivo effect of cilengitide on radioresponse of xenografts was assessed by tumor growth delay. When tumor xenografts reached 7 mm in diameter cilengitide treatment (30 or 60 mg/d/5 or 10 days) was initiated followed by a single dose of 15 Gy local radiation (using ^137Cs γ-ray source), when the tumors reached 8 mm.

[1] = tested on: HNSCC lines (FaDu, SCC-15 and SCC-25); experiment: Cellular radiosensitivity by clonogenic cell survival assay, HNSCC lines; format: cell-based, human; conditions: combined with γ-radiation
Description: as §1

[2] = tested on: H460 (NSCLC) tumor xenografts; experiment: Tumor growth delay of H460 xenografts with radiation; format: in vivo, nude mice
Description: as §1

H460 = experiment: Cellular radiosensitivity by clonogenic cell survival assay, H460; format: cell-based, human; conditions: combined with γ-radiation, given 1 h before and continued 23 h after irradiation
Description: as §1

SCC-15 = experiment: In vitro cell viability by MTS assay, SCC-15; format: cell-based, human; conditions: 5 μg/ml, 24 h
Description: as §1

[3] = tested on: FaDu (HNSCC) tumor xenografts; experiment: Tumor growth delay of FaDu xenografts with radiation; format: in vivo, nude mice
Description: as §1

A549 = experiment: Cellular radiosensitivity by clonogenic cell survival assay, A549; format: cell-based, human; conditions: combined with γ-radiation, given 1 h before and continued 23 h after irradiation
Description: as §1

[4] = tested on: MDA-MB-231 breast cancer bone metastases; experiment: Experimental breast cancer bone metastases in nude rats: histology / immunofluorescence of tumor vessels; format: in vivo, nude rats (RNU strain); conditions: after 4 weeks treatment (control rats 8.8 μm; p<0.01)
Description: Nude rats (RNU strain) are obtained from Harlan-Winkelmann GmbH (Borchen, Germany) at the age of six weeks and housed in a specific pathogen-free environment in a mini barrier system of the central animal facility. Animals are kept under controlled conditions (21±2° C. room temperature, 60% humidity, 12 h light-dark rhythm) and offered autoclaved food and water ad libitum. Sub-confluent MDAMB-231 cells are harvested using 0.05% Trypsin-EDTA (Gibco®; Invitrogen, Karlsruhe, Germany) counted on a Neubauer's chamber and resuspended in RPMI-1640 to a final concentration of 10^5 cells in 200 μl. Rats are anesthetized using a mixture of nitrous oxide (1 l/min), oxygen (0.5 l/min) and isoflurane (1.5 vol. %). Arterial branches of the right hind leg are dissected and 10^5 cells injected into the superficial epigastric artery as described previously.^28 Bone metastases established and are observed exclusively in the femur, tibia and fibula of the right hind leg. […]
At the end of the observation period lower limbs of each animal are amputated and muscular tissue removed. […] Mean positive area fractions of SMA and collagen IV (in percent) as well as mean vessel diameters (in μm) are determined from 4 representative animals of each group analyzing 10 fields of view chosen randomly from each rat using Analysis Software (cell^F; Olympus Soft Imaging Solutions, Münster, Germany). […]

[5] = tested on: BT474 human breast cancer cells; experiment: Her2+ breast cancer model BT474, Cilengitide in combination with Herceptin; format: in vivo, Balbc nu/nu mice; conditions: 300 mg/kg Cilengitide s.c. daily
Excerpt: BT474 human breast cancer cells were subcutaneously injected into Balbc nu/nu mice. The mice were randomized into different treatment groups when the tumors reached a mean tumor volume of approximately 125 mm^3.

[6] = cited from earlier work
[7] = EMD (cilengitide) single dose + RT single dose, Control 41, RT 113, listed as EMD + RT
[8] = with single dose of 15 Gy local radiation

CC(C)[C@H]1C(=O)N[C@@H](CCCN=C(N)N)C(=O)NCC(=O)N[C@@H](CC(=O)O)C(=O)N[C@H](Cc2ccccc2)C(=O)N1C [Cilengitide, cyclo-(Arg-Gly-Asp-DPhe-NMeVal)]
Days post implant (range) (U251 MG; Cilengitide + RT, at 4 months): 131 (≥131) days
Tumor volume (mm^3) median (histologic, Alu ISH) (U251 MG; Cilengitide + RT, at 4 months): 0.10 (0.06-0.14) mm^3
Tumor volume (mm^3) median (histologic, Alu ISH) (U251 MG; Cilengitide alone, at time of symptoms): 175 (158-208) mm^3
MRI finding of rat brain (U251 MG; Cilengitide alone, representative animal imaged at 17d): contrast-enhancing tumor is visible
Days post implant (range) (U251 MG; Cilengitide alone, time of symptoms): 40 (40-41) days
MRI finding of rat brain (U251 MG; Cilengitide+RT, representative animal imaged at 68 days (T2-MRI)): no tumor is visible
Median Survival (U251 MG; [7]): > 154 days
Median Survival in Days (U251 MG; [7]): >154 vs 113 Days
radiosensitivity enhancement factor (H1299): 1.3
effect on radiosensitivity of HNSCC lines [1]: only an additive effect
enhancement factor of tumor radioresponse (tumor growth delay) [2, 8]: 1.7
antitumor activity as a single agent (tumor growth delay) ([2]; without radiation): no antitumor activity
radiosensitivity enhancement factor (H460): 1.35
in vitro viability (SCC-15): 71.4±2.2%
enhancement factor of tumor radioresponse (tumor growth delay) [3, 8]: 2.0
antitumor activity as a single agent (tumor growth delay) ([3]; without radiation): no antitumor activity
radiosensitivity enhancement factor (A549): 1.56
mean vessel diameter in bone metastases [4]: 6.6 μm
tumor growth of Her2+ BT474 tumors under monotherapy [5]: did not inhibit the tumor growth
MTD in humans [6]: no known MTD

Reference: US10478501B2, “Method of treating disorders using a pharmaceutical composition of oligopeptides” (Merck Patent GmbH, priority 2011, dated 2019)
